Reference: paper PMC3598705, “Evaluation of Toxicity and Biodegradability of Cholinium Amino Acids Ionic Liquids” (PLoS ONE, 2013)
In brackets after ≈: the same amount, converted by molar mass. Like-named read-outs stand apart in the source and are kept apart here.

Experiments:
E. coli ATCC 8739 = assay: Antimicrobial activity, tube dilution method; format: cell-based, Escherichia coli; conditions: four repeated experiments
Protocol: (§1) Antimicrobial activity was measured via the tube dilution method as described previously. Briefly, E. coli, S. aureus, S. enteritidis and L. monocytogenes were cultured in Mueller-Hinton broth for 24 h at 37 °C. A microorganism suspension of 10^6 cfu mL^−1 (cfu, colony forming units) was prepared from each culture. IL solutions (31.3–1500 mM) were prepared with sterilized Mueller-Hinton broth, and then were sterilized by filtration (0.45 µm pore-diameter membrane). The various permutations of microorganism suspension (50 µL) and IL solution (50 µL) were mixed in 96-well microtiter plate. Growth of the microorganisms was determined visually after incubation for 24 h at 37 °C. Controls were conducted under the same conditions: negative controls without microorganisms and positive controls without ILs. The lowest concentration at which there was no visible growth (turbidity) was taken as the minimal inhibitory concentration (MIC). Samples of 20 µL from each well were spread onto Mueller-Hinton agar medium with inactivates (0.3% lecithin, 3% polysorbate 80 and 0.1% L-cysteine) and incubated for 48 h at 37 °C. The lowest concentration of the IL that killed 99.9% or more of the test bacterium was taken as the minimum biocidal concentration (MBC).

[1] = tested on: S. enteritidis ATCC 14128; assay: Antimicrobial activity, tube dilution method; format: cell-based, Salmonella enteritidis; conditions: four repeated experiments; for MIC: 24 h at 37 °C; for MBC: kills 99.9% or more
Protocol: as §1

[2] = target: T1, AChE type VI-S (from the electric eel) (Electrophorus electricus, UniProt O42275); assay: AChE inhibition assay (colorimetric, DTNB reduction); format: biochemical; conditions: DTNB 0.5 mM, AChE 0.05 U mL^−1, acetylthiocholine iodide 0.5 mM, 37 °C, phosphate buffer pH 8.0; mean ± SD; read-out: EC50±SD (toxicity toward AChE)
T1 construct: purchased Sigma–Aldrich, USA type VI-S (catalogue number not given)
Protocol: A colorimetric assay based on reduction of DTNB was used to measure AChE inhibition as described previously, [24], in the presence of a phosphate buffer system in order to eliminate the effects of pH changes on enzyme activity. Briefly, IL solutions were prepared with 0.2 M phosphate buffer (pH 8.0) in 96-well microtiter plates. The enzyme (0.2 U mL^−1, plus 0.25 mg mL^−1 bovine serum albumin in the same phosphate buffer), and DTNB (2 mM, plus 0.185 mg mL^−1 NaHCO3 in the same phosphate buffer) were added to each well and kept at 37 °C for 5 min, and then the reaction was initiated by adding acetylthiocholine iodide (2 mM in the same phosphate buffer). In the experimental reactions, the final concentrations of DTNB, acetylthiocholine iodide and AChE were 0.5 mM, 0.5 mM and 0.05 U mL^−1, respectively. Except where stated otherwise, the concentration range used to calculate EC50 of the [Ch][AA] ILs was 0–50 mM. However, for strongly alkaline [Ch][AA] ILs such as [Ch][Lys], the maximum concentration used was 20 mM in order to avoid changes in enzyme activity due to pH changes that would be caused if the IL exceeded the buffering capacity of the phosphate buffer. Acidic amino acid-derived ILs ([Ch][Asp] and [Ch][Glu]) were used up to 80 mM. The control compounds cholinium chloride ([Ch][Cl]), [Bmim][BF4] and acetone were used at concentration ranges of 0–80 mM, 0–50 mM and 10 mM–2.5 M, respectively. Control experiments without enzyme were carried out under otherwise identical conditions. Reduction of DTNB was monitored at 405 nm and at 10 second intervals in a microplate reader (Wallac 1420 VICTOR3, PerkinElmer, Singapore) over a period of 5 min. Enzyme activity was expressed as ΔOD min^−1 obtained via linear regression analysis. All assays were performed at least in triplicate.
All data were analyzed by One-Way analysis of variance using SPSS 11.5 (SPSS Inc., USA). EC50 values are presented as mean ± standard deviation (SD) from at least three repeats, and confidence intervals (α = 0.05) of EC50 are also presented. The One-Way ANOVA was used to judge if the difference between the different ILs groups was significant. When the p value was<0.05, the difference was considered to be significant.

S. aureus ATCC 29213 = assay: Antimicrobial activity, tube dilution method; format: cell-based, Staphylococcus aureus; conditions: four repeated experiments
Protocol: as §1

[3] = tested on: L. monocytogenes ATCC 19115; assay: Antimicrobial activity, tube dilution method; format: cell-based, Listeria monocytogenes; conditions: four repeated experiments
Protocol: as §1

T1 sequence (O42275 24-633): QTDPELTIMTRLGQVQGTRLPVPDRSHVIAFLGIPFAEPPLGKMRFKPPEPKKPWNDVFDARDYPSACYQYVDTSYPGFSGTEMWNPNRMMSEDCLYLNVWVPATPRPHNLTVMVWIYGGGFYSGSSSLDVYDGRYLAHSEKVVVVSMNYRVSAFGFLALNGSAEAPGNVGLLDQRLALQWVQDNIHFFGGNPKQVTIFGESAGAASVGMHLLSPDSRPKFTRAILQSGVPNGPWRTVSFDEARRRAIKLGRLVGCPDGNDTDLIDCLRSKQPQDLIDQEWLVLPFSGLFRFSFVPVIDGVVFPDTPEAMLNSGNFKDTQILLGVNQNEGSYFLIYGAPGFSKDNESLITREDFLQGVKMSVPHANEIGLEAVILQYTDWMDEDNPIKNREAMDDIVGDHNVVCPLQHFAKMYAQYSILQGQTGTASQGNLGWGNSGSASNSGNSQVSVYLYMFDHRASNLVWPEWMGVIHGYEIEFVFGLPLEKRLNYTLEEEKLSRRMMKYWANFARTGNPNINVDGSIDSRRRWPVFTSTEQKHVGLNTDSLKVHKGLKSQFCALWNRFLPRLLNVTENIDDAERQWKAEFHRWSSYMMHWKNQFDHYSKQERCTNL

Compound | MIC (E. coli ATCC 8739; 24 h at 37 °C) [mM] | MBC (E. coli ATCC 8739; kills 99.9% or more) [mM] | MIC [1] [mM] | MBC [1] [mM] | EC50 [2] [mM] | MIC (S. aureus ATCC 29213; 24 h at 37 °C) [mM] | MBC (S. aureus ATCC 29213; kills 99.9% or more) [mM] | MIC ([3]; 24 h at 37 °C) [mM] | MBC ([3]; kills 99.9% or more) [mM] | also measured
C[N+](C)(C)CCO.N[C@@H](Cc1c[nH]c2ccccc12)C(=O)[O-] [[Ch][Trp]] | 23.4 | 31.3 | 23.4 | 31.3 | 2.45 ± 0.02 | 46.9 | 62.5 | 31.3 | 46.9 | 
C[C@@H](O)[C@H](N)C(=O)O [[Ch][Thr]] |  |  |  |  | 3.45 ± 0.15 |  |  |  |  | 
NCC(=O)O [[Ch][Gly]] |  |  |  |  | 3.83 ± 0.17 |  |  |  |  | 
C[N+](C)(C)CCO.O=C([O-])[C@@H]1CCCN1 [[Ch][Pro]] | 46.9 | 62.5 | 46.9 | 62.5 |  | 93.8 | 125 | 62.5 | 93.8 | 
CCCCn1cc[n+](C)c1 [[Bmim][BF4], 1-Butyl-3-methylimidazolium tetrafluoroborate, reference compound] |  |  |  |  | 0.33 ± 0.01 |  |  |  |  | MIC (E. coli ATCC 8739; Escherichia coli, ATCC8739, 24 h at 37 °C, read-out: MIC): 2.3 mM; MBC (E. coli ATCC 8739; Escherichia coli, ATCC8739, kills 99.9% or more, read-out: MBC): 4.6 mM; MIC ([1]; Salmonella enterica, read-out: MIC): 2.3 mM; MBC ([1]; Salmonella enterica, read-out: MBC): 2.3 mM; MIC (S. aureus ATCC 29213; Staphylococcus aureus, ATCC29213, 24 h at 37 °C, read-out: MIC): 2.3 mM; MBC (S. aureus ATCC 29213; Staphylococcus aureus, ATCC29213, kills 99.9% or more, read-out: MBC): 4.6 mM; MIC ([3]; Listeria monocytogenes, ATCC19115, 24 h at 37 °C, read-out: MIC): 2.3 mM; MBC ([3]; Listeria monocytogenes, ATCC19115, kills 99.9% or more, read-out: MBC): 4.6 mM
C[N+](C)(C)CCO.C[N+](C)(C)CCO.N[C@@H](CC(=O)[O-])C(=O)[O-] [[Ch][Asp]] | 500 | 750 | 125 | 188 | 3.81 ± 0.09 | 750 | 750 | 500 | 750 | 
NC(=O)CC[C@H](N)C(=O)O [[Ch][Gln]] |  |  |  |  | 3.51 ± 0.16 |  |  |  |  | 
N[C@@H](Cc1cnc[nH]1)C(=O)O [[Ch][His]] |  |  |  |  | 3.63 ± 0.04 |  |  |  |  | 
C[N+](C)(C)CCO.N[C@@H](CCC(=O)O)C(=O)[O-] [[Ch][Glu]] | 500 | 750 | 125 | 188 | 3.72 ± 0.07 | 750 | 750 | 500 | 750 | 
CC(C)[C@H](N)C(=O)O [[Ch][Val]] | 46.9 (≈ 5490 µg/mL) | 62.5 (≈ 7320 µg/mL) | 46.9 (≈ 5490 µg/mL) | 62.5 (≈ 7320 µg/mL) | 3.06 ± 0.12 | 93.8 (≈ 11000 µg/mL) | 125 (≈ 14600 µg/mL) | 93.8 (≈ 11000 µg/mL) | 125 (≈ 14600 µg/mL) | 
CSCC[C@H](N)C(=O)O [[Ch][Met]] |  |  |  |  | 3.13 ± 0.14 |  |  |  |  | 
CC(=O)[O-].C[N+](C)(C)CCO [[Ch][AcO], Cholinium acetate, reference compound] | 500 | 750 | 750 | 750 |  | 500 | 750 | 500 | 750 | 
N[C@@H](CO)C(=O)O [[Ch][Ser]] |  |  |  |  | 3.56 ± 0.15 |  |  |  |  | 
